Data on two compounds can be found in US6696418B1, “Somatostatin antagonists and agonists that act at the SST subtype 2 receptor” (Pfizer Inc., priority 1999, dated 2004).

For the test, the system named is GH4C1 cells. Description: Rat pituitary assay for somatostatin receptor antagonists (cAMP content of GH4C1 cells). The class given is cell-based. An excerpt:
This assay is designed to quantitate the activity of antagonists of somatostatin that interact directly at the somatostatin receptor. The assay facilitates discovery of agents which increase growth hormone secretion by modulating the inhibitory effects of somatostatin. As aforementioned, somatostatin (also abbreviated SRIF) inhibits GH secretion in the anterior pituitary by binding to a high affinity membrane-bound (and G-protein coupled) receptor which is coupled negatively to adenyl cyclase, thereby reducing intracellular levels of cAMP that would otherwise facilitate, for example, secretion/release of GH from cytoplasmic granules. […] The screen is designed to quantitate the ability of test agents to reverse SRIF's inhibition of the elevated intracellular cAMP levels produced by VIP. […]
In particular, cyclic AMP (cAMP) content of the pituitary cell line GH4C1 was used to differentiate somatostatin agonists from antagonists. […] This afforded a convenient way to conduct a homogenous immunoradiometric assay of cAMP content in cells lysed in situ, following incubation of the cells with test compound. cAMP content in the GH4C1 cells was determined according to the manufacturer's instructions, by comparison with standards at concentrations from 10 to 1,000 nM cAMP. […]

Where no end group is shown, it is not given here.

In the case of `C[C@H](N)C(=O)NCC(=O)N[C@H]1CSSC[C@@H](C(=O)O)NC(=O)[C@H](CO)NC(=O)[C@H]([C@@H](C)O)NC(=O)[C@H](Cc2ccccc2)NC(=O)[C@H]([C@@H](C)O)NC(=O)[C@H](CCCCN)NC(=O)[C@H](Cc2c[nH]c3ccccc23)NC(=O)[C@H](Cc2ccccc2)NC(=O)[C@H](Cc2ccccc2)NC(=O)[C@H](CC(N)=O)NC(=O)[C@H](CCCCN)NC1=O` [somatostatin, somatostatin 14], the “effect on VIP-elevated cAMP content of the GH4C1 cells” value (10 nM somatostatin 14 in the presence of 100 nM VIP) was “partial inhibition”.

For “vasoactive intestinal peptide (HSDAVFTDNYTRLRKQMAVKKYLNSILN; ends and bridges not checked; UniProt P01282 125-152, looked up) [VIP]”, the “effect on cAMP content of the GH4C1 cells” value (100 nM VIP) is “increased cAMP content”.
